Experimental findings from patent US20240124442A1, “TRICYCLIC-AMIDO-BICYCLIC PRMT5 INHIBITORS” (AMGEN INC., priority 2021, published 2024) are described below.

One test concerns HCT116 MTAP null cells. Nature of the test: HCT116 MTAP null cell line proliferation / cell viability (CellTiter-Glo, 6 days). In kind it is cell-based. Conditions: 144 h; HCT116 MTAP null cells, 6 days treatment, CellTiter-Glo cell viability; read-out: HCT-116 MTAP null IC50. The method, boiled down:
(§1)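 Viability read by CellTiter-Glo luminescence after 6 days of compound treatment of HCT116 WT and MTAP-null cells (RPMI 1640, 10% FBS). Dose series were 1:3 steps from 1 or 10 μM (8–9 points), or 1:2 steps from 10 or 50 μM (22 points). IC50 from 4-parameter logistic or fixed-slope sigmoidal fit.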

Another test has as its system HCT116 WT cells. Kind of test: HCT116 WT (parent) cell line proliferation / cell viability (CellTiter-Glo, 6 days). The class given is cell-based. To be noted: Homo sapiens, HCT-116, 144 h, 6 days treatment. The essentials: as §1
For orientation: Cellular ATP, detected with luciferase, serves as a proxy for viable cell number.

Broadly, the IC50 is the point on the concentration scale where inhibition reaches its midpoint. In the case of `CN(C(=O)c1cc2c(cc1Cl)nc(N)c1cnn(C)c12)[C@H]1COc2nc(C(F)(F)F)ccc21` (single isomer, unassigned) [Example 388], the half-maximal inhibitory concentration (IC50) in the test on HCT116 MTAP null cells amounted to 0.136 µM; with HCT116 WT cells it was 7.54 µM.
Consider `CN(C(=O)c1cc2c(cc1F)nc(N)c1c2cnn1C)[C@@H]1CCc2nc(C(F)(F)F)ccc21` (single isomer, unassigned) [Example 389], for which the IC50 with HCT116 MTAP null cells is 0.185 µM; in the test on HCT116 WT cells it was 17.2 µM.
Turning to `CN(C(=O)c1cc2c(cc1F)nc(N)c1c2cnn1C)[C@H]1CCc2nc(C(F)(F)F)ccc21` (single isomer, unassigned) [Example 390], the 50% inhibitory concentration (IC50) in the test with HCT116 MTAP null cells is 6.55 µM; with HCT116 WT cells it was 25 µM.
For `Cc1nn(C)c2c1c(N)nc1cc(F)c(C(=O)N(C)[C@@H]3COc4cc(S(F)(F)(F)(F)F)ccc43)cc12` (single isomer, unassigned) [Example 391], the IC50 came out at 0.038 µM in the test with HCT116 MTAP null cells and 1.04 µM with HCT116 WT cells.
As to `Cc1nn(C)c2c1c(N)nc1cc(F)c(C(=O)N(C)[C@H]3COc4cc(S(F)(F)(F)(F)F)ccc43)cc12` (single isomer, unassigned) [Example 392], the IC50 in the test on HCT116 MTAP null cells is 0.995 µM; in the test with HCT116 WT cells, 8.3 µM.
With `COc1ccc2c(c1)COC[C@H]2N(C)C(=O)c1ccc2nc(N)c3c(c2c1)COC3` (single isomer, unassigned) [Example 393], the figures for the half-inhibitory concentration (IC50) with HCT116 MTAP null cells and in the test with HCT116 WT cells were 0.136 µM and 4.07 µM, respectively.
As to `C[C@H]1OCc2c1c(N)nc1ccc(C(=O)N(C)[C@@H]3COCc4cc(Br)ccc43)cc21` (single isomer, unassigned) [Example 394], the IC50 in the test with HCT116 MTAP null cells was 0.025 µM; in the test on HCT116 WT cells, 1.44 µM.
In the case of `C[C@H]1OCc2c1c(N)nc1ccc(C(=O)N(C)[C@H]3COCc4cc(Br)ccc43)cc21` (single isomer, unassigned) [Example 395], the IC50 in the test on HCT116 MTAP null cells came out at 0.696 µM; in the test with HCT116 WT cells, 10 µM.
As for `CCN(C(=O)c1ccc2nc(N)c3c(c2c1)CO[C@@H]3C)[C@@H]1COCc2cc(Br)ccc21` (single isomer, unassigned) [Example 396], the half-inhibitory concentration (IC50) in the test on HCT116 MTAP null cells turned out to be 0.01 µM; in the test on HCT116 WT cells, 0.272 µM.
For `CCN(C(=O)c1ccc2nc(N)c3c(c2c1)CO[C@@H]3C)[C@H]1COCc2cc(Br)ccc21` (single isomer, unassigned) [Example 397], in that order: 0.599 µM and 18.7 µM.
Regarding `CN(C(=O)c1cc2c3c(c(N)nc2cn1)COC3)[C@@H]1COCc2cc(Br)ccc21` (single isomer, unassigned) [Example 398], the values for the IC50 in the test on HCT116 MTAP null cells and in the test with HCT116 WT cells were 0.02 µM and 0.911 µM, respectively.
As for `CN(C(=O)c1cc2c3c(c(N)nc2cn1)COC3)[C@H]1COCc2cc(Br)ccc21` (single isomer, unassigned) [Example 399], the IC50 in the test with HCT116 MTAP null cells came out at 1.33 µM; with HCT116 WT cells, 10 µM.
The matching figures for `COc1ccc2c(c1)COC[C@H]2N(C)C(=O)c1cc2c3c(c(N)nc2cc1F)COC3` (single isomer, unassigned) [Example 400]: 0.05 µM and 2.11 µM.
The matching figures for `CN(C(=O)c1cc2c3c(c(N)nc2cc1F)COC3)[C@@H]1CCOc2cc(C(F)(F)F)ccc21` (single isomer, unassigned) [Example 401]: 0.148 µM and 6.57 µM.
The matching figures for `CN(C(=O)c1cc2c3c(c(N)nc2cc1Cl)COC3)[C@@H]1COCc2nc(C#N)ccc21` (single isomer, unassigned) [Example 402]: 0.008 µM and 0.436 µM.
For `CN(C(=O)c1cc2c3c(c(N)nc2cc1Cl)COC3)[C@H]1COCc2nc(C#N)ccc21` (single isomer, unassigned) [Example 403], the figures for the IC50 with HCT116 MTAP null cells and in the test with HCT116 WT cells were 0.463 µM and 25.8 µM, respectively.
With `CN(C(=O)c1cc2c3c(c(N)nc2cc1Cl)COC3)[C@@H]1COCc2c1ccc(C(F)(F)F)c2F` (single isomer, unassigned) [Example 404], the values for the concentration for half-maximal inhibition (IC50) with HCT116 MTAP null cells and in the test on HCT116 WT cells were 0.009 µM and 0.25 µM, respectively.
The matching figures for `CN(C(=O)c1cc2c3c(c(N)nc2cc1Cl)COC3)[C@H]1COCc2c1ccc(C(F)(F)F)c2F` (single isomer, unassigned) [Example 405]: 0.696 µM and 14.7 µM.
The matching figures for `C[C@H]1OC[C@@H](N(C)C(=O)c2cc3c4c(c(N)nc3nc2Cl)COC4)c2ccc(C(F)(F)F)cc21` (single isomer, unassigned) [Example 406]: 0.011 µM and 0.322 µM.
On to `CN(C(=O)c1ccc2nc(N)c3cnn(C)c3c2c1)[C@@H]1COCc2c(F)cncc21` (single isomer, unassigned) [Example 407], for which the concentration for half-maximal inhibition (IC50) with HCT116 MTAP null cells is 0.554 µM; with HCT116 WT cells it was 23.3 µM.
Consider `COc1ccc2c(c1)COC[C@H]2N(C)C(=O)c1ccc2nc(N)c3cnn(C)c3c2c1` (single isomer, unassigned) [Example 408], for which the IC50 is 0.024 µM with HCT116 MTAP null cells and 1.71 µM with HCT116 WT cells.
The matching figures for `CN(C(=O)c1ccc2nc(N)c3cnn(C)c3c2c1)[C@@H]1COCc2c1ccc(F)c2F` (single isomer, unassigned) [Example 409]: 0.048 µM and 3.91 µM.
On to `CCOc1ccc2c(n1)COC[C@H]2N(C)C(=O)c1ccc2nc(N)c3cnn(C)c3c2c1` (single isomer, unassigned) [Example 410], for which the results for the half-inhibitory concentration (IC50) in the test on HCT116 MTAP null cells and in the test on HCT116 WT cells were 0.021 µM and 1.47 µM, respectively.
In the case of `CN(C(=O)c1ccc2nc(N)c3cnn(C)c3c2c1)[C@@H]1CCCc2nc(C(F)(F)F)ccc21` (single isomer, unassigned) [Example 411], the IC50 amounted to 0.083 µM in the test on HCT116 MTAP null cells and 6.27 µM in the test on HCT116 WT cells.
For `CN(C(=O)c1ccc2nc(N)c3cnn(C)c3c2c1)[C@@H]1COCc2cc(Br)ccc21` (single isomer, unassigned) [Example 412], in that order: 0.004 µM and 0.228 µM.
The matching figures for `CN(C(=O)c1ccc2nc(N)c3cnn(C)c3c2c1)[C@H]1COCc2cc(Br)ccc21` (single isomer, unassigned) [Example 413]: 0.36 µM and 7.99 µM.
As for `C[C@H]1OC[C@@H](N(C)C(=O)c2ccc3nc(N)c4cnn(C)c4c3c2)c2ccc(C(F)(F)F)cc21` (single isomer, unassigned) [Example 414], the IC50 stood at 0.001 µM in the test on HCT116 MTAP null cells and 0.019 µM with HCT116 WT cells.
Consider `C[C@@H]1OC[C@H](N(C)C(=O)c2ccc3nc(N)c4cnn(C)c4c3c2)c2ccc(C(F)(F)F)cc21` (single isomer, unassigned) [Example 415], for which the half-maximal inhibitory concentration (IC50) with HCT116 MTAP null cells was found to be 0.078 µM; with HCT116 WT cells it was 2.63 µM.
Consider `CN(C(=O)c1ccc2nc(N)c3cnn(C)c3c2c1)[C@@H]1COCc2c1ccc(C(F)(F)F)c2F` (single isomer, unassigned) [Example 416], for which the 50% inhibitory concentration (IC50) in the test on HCT116 MTAP null cells is 0.006 µM; in the test with HCT116 WT cells it was 0.414 µM.
As to `CN(C(=O)c1ccc2nc(N)c3cnn(C)c3c2c1)[C@H]1COCc2c1ccc(C(F)(F)F)c2F` (single isomer, unassigned) [Example 417], the half-inhibitory concentration (IC50) in the test on HCT116 MTAP null cells worked out at 0.841 µM; with HCT116 WT cells it was 6.11 µM.
The matching figures for `CN(C(=O)c1ccc2nc(N)c3cnn(C)c3c2c1)[C@@H]1COCc2nc(Br)ccc21` (single isomer, unassigned) [Example 418]: 0.003 µM and 0.421 µM.
`CN(C(=O)c1ccc2nc(N)c3cnn(C)c3c2c1)[C@H]1COCc2nc(Br)ccc21` (single isomer, unassigned) [Example 419]: the IC50 in the test on HCT116 MTAP null cells was 0.545 µM; in the test with HCT116 WT cells it was 26.4 µM.
The matching figures for `COc1ccc2c(c1)COC[C@H]2N(C)C(=O)c1cc2c(cn1)nc(N)c1cnn(C)c12` (single isomer, unassigned) [Example 420]: 0.015 µM and 0.439 µM.
For `COc1ccc2c(c1)COC[C@@H]2N(C)C(=O)c1cc2c(cn1)nc(N)c1cnn(C)c12` (single isomer, unassigned) [Example 421], the half-maximal inhibitory concentration (IC50) in the test with HCT116 MTAP null cells came out at 0.792 µM; in the test with HCT116 WT cells, 35.2 µM.
For `CN(C(=O)c1cc2c(cn1)nc(N)c1cnn(C)c12)[C@@H]1COCc2c1ccc(C(F)(F)F)c2F` (single isomer, unassigned) [Example 422], in that order: 0.01 µM and 0.241 µM.
For the compound `CN(C(=O)c1cc2c(cc1F)nc(N)c1cnn(C)c12)[C@@H]1COCc2ncccc21` (single isomer, unassigned) [Example 423], the 50% inhibitory concentration (IC50) turned out to be 0.039 µM with HCT116 MTAP null cells and 1.61 µM in the test with HCT116 WT cells.
Turning to `CN(C(=O)c1cc2c(cc1F)nc(N)c1cnn(C)c12)[C@H]1COCc2ncccc21` (single isomer, unassigned) [Example 424], the values for the half-inhibitory concentration (IC50) in the test with HCT116 MTAP null cells and in the test with HCT116 WT cells were 0.593 µM and 18.6 µM, respectively.
With `CN(C(=O)c1cc2c(cc1F)nc(N)c1cnn(C)c12)[C@@H]1COCc2c(F)cncc21` (single isomer, unassigned) [Example 425], the IC50 was 0.158 µM in the test with HCT116 MTAP null cells and 13.4 µM in the test on HCT116 WT cells.
Consider `CN(C(=O)c1cc2c(cc1F)nc(N)c1cnn(C)c12)[C@H]1COCc2c(F)cncc21` (single isomer, unassigned) [Example 426], for which the IC50 with HCT116 MTAP null cells came out at 0.355 µM; with HCT116 WT cells, 27.9 µM.
Consider `COc1ccc2c(c1)COC[C@H]2N(C)C(=O)c1cc2c(cc1F)nc(N)c1cnn(C)c12` (single isomer, unassigned) [Example 427], for which the IC50 with HCT116 MTAP null cells is 0.008 µM; with HCT116 WT cells it was 0.247 µM.
In the case of `COc1ccc2c(c1)COC[C@@H]2N(C)C(=O)c1cc2c(cc1F)nc(N)c1cnn(C)c12` (single isomer, unassigned) [Example 428], the values for the half-inhibitory concentration (IC50) with HCT116 MTAP null cells and with HCT116 WT cells were 0.275 µM and 8.34 µM, respectively.
`CN(C(=O)c1cc2c(cc1F)nc(N)c1cnn(C)c12)[C@@H]1CCCc2nc(C(F)(F)F)ccc21` (single isomer, unassigned) [Example 429]: the IC50 in the test on HCT116 MTAP null cells came out at 0.049 µM; in the test on HCT116 WT cells it was 2.35 µM.
